Source: patent US12139520B2 (priority 2020, dated 2024)
pEC50: −log10 of the molar value. Like-named read-outs stand apart in the source and are kept apart here. Bridge positions count the residues as written; N and C are the ends. Square brackets hold non-standard residues; d marks the D form. Peptide text beside a SMILES is read from it. Hyp = O=C(O)[C@@H]1C[C@@H](O)CN1; Cit = NC(=O)NCCC[C@H](N)C(=O)O

Key:
hAMY3 receptor = target: T1, hAMY3 receptor (Homo sapiens, UniProt O60896+P30988); test: cAMP assay for in vitro receptor activation, hAMY3-R; type: cell-based; conditions: for pEC50: read-out: hAMY3R EC50
T1 sequence (P30988 25-474): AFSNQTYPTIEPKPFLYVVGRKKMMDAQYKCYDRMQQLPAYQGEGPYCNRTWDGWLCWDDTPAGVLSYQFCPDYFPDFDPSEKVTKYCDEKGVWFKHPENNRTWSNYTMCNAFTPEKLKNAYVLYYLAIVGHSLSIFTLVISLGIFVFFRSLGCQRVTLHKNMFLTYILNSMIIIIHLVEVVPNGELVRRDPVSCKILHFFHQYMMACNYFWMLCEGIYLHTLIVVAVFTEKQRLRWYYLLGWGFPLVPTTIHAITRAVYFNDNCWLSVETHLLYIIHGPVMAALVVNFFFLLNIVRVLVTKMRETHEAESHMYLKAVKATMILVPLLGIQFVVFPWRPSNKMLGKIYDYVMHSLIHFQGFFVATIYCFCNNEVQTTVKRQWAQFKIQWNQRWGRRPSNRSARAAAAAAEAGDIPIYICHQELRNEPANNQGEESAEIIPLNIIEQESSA
T1 sequence (O60896 24-148 partner): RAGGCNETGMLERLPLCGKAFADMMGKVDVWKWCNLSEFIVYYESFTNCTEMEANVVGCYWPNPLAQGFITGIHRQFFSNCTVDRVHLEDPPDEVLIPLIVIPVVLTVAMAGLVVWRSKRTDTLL
How it was run: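 Graded compound concentrations were applied for 30 min at room temperature to stably hAMY3-expressing cells in DPBS, 0.05% casein, 0.5 mM IBMX; cAMP detected by TR-FRET.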

[1] = Physical stability of peptide analogues (Thioflavin T fibrillation); type: physicochemical; conditions: maximum ThT signal normalized between hAMY maximum and buffer background; 40° C., shaking, four days; pH 7 per table title
How it was run: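 Samples are stressed at 40 °C for four days, being shaken at 700 rpm before each 10-min fluorescence reading of 4 μM Thioflavin T. Buffers were pH 4 acetate or pH 7 phosphate. Reported values are smoothed maximum ThT signals as a percentage of the hAMY-to-background range.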

hAM1 receptor = hAM1 receptor (Homo sapiens, UniProt O60895+Q16602); test: cAMP assay for in vitro receptor activation, hAM1-R; type: cell-based; conditions: for pEC50: read-out: hAM1R EC50
Chain of hAM1 receptor (Q16602 23-461): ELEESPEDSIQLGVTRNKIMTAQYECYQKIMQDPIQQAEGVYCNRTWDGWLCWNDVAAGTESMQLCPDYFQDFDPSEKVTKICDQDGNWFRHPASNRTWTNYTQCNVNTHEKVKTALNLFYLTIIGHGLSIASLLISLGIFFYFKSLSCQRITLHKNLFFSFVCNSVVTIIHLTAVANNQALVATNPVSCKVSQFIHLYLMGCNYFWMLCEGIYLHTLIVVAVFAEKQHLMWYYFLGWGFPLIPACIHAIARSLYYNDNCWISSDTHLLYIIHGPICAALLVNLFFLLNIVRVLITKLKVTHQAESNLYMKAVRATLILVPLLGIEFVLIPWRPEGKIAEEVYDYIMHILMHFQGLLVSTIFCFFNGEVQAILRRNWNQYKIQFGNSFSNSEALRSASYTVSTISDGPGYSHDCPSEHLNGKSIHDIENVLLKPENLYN
Chain of hAM1 receptor (O60895 43-175 partner): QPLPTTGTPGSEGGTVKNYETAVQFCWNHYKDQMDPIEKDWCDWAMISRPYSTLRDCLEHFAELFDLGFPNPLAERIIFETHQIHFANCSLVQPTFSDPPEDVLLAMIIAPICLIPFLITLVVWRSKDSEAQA
How it was run: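 Monoclonal stable hAM1-overexpressing cells, thawed from frozen stock; 8000 cells/well in DPBS + 0.05% casein + 0.5 mM IBMX; read-out cAMP.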

| Structure (SMILES) | pEC50 (hAMY3 receptor; cAMP assay, hAMY3 receptor) | Max ThT signal (%) [1] [%] | pEC50 (hAM1 receptor; cAMP assay, hAM1 receptor) | pEC50 (hAMY3 receptor; cAMP accumulation, cells stably overexpressing hAMY3 receptor, 30 min stimulation) | improvement of potency on AMY3R compared to hAM15-52 (hAMY3 receptor; relative to SEQ ID NO: 1) | pEC50 (hAM1 receptor; cAMP accumulation, cells stably overexpressing hAM1 receptor, 30 min stimulation) | decrease of potency on AM1R compared to hAM15-52 (hAM1 receptor; relative to SEQ ID NO: 1) |
| --- | --- | --- | --- | --- | --- | --- | --- |
| CC[C@H](C)[C@H](NC(=O)[C@H](CCC(N)=O)NC(=O)[C@H](C)NC(=O)[C@H](C)NC(=O)[C@H](CC(C)C)NC(=O)[C@H](CCCNC(=N)N)NC(=O)[C@H](CCC(N)=O)NC(=O)[C@@H](NC(=O)[C@@H](NC(=O)[C@@H]1CSSC[C@H](NC(=O)[C@@H](N)CCCCN)C(=O)N[C@@H](CC(N)=O)C(=O)N[C@@H]([C@@H](C)O)C(=O)N[C@@H](C)C(=O)N[C@@H]([C@@H](C)O)C(=O)N1)[C@@H](C)O)C(C)C)C(=O)N[C@@H](Cc1ccc(O)cc1)C(=O)N[C@@H](CCC(N)=O)C(=O)N[C@@H](Cc1ccccc1)C(=O)N[C@H](C(=O)N[C@@H](CC(=O)O)C(=O)N[C@@H](CCCCN)C(=O)N[C@@H](CC(=O)O)C(=O)N[C@@H](CCCCN)C(=O)N[C@@H](CC(=O)O)C(=O)N[C@@H](CC(N)=O)C(=O)N[C@H](C(=O)N[C@@H](C)C(=O)N1CCC[C@H]1C(=O)N1CCC[C@H]1C(=O)N[C@H](C(=O)N[C@@H](CC(N)=O)C(=O)N[C@H](C(=O)NCC(=O)N[C@@H](CO)C(=O)N[C@@H](CC(N)=O)C(=O)NCC(=O)N1C[C@H](O)C[C@H]1C(N)=O)C(C)C)[C@@H](C)O)C(C)C)[C@@H](C)O [compound 7] (H-KCNTATCTVQRLAAQIYQFTDKDKDNVAPPTNVGSNG[Hyp]-NH2; disulfide 2-7; N-terminus assumed) | 11.22 | 2.800 | < 5.30 |  |  |  |  |
| CC[C@H](C)[C@H](NC(=O)[C@H](CCC(N)=O)NC(=O)[C@H](CC(=O)O)NC(=O)[C@H](C)NC(=O)[C@H](CC(C)C)NC(=O)[C@H](CCCNC(N)=O)NC(=O)[C@H](CC(N)=O)NC(=O)[C@@H](NC(=O)[C@@H](NC(=O)[C@@H]1CSSC[C@H](NC(=O)[C@@H](N)CCCNC(=N)N)C(=O)N[C@@H](CC(N)=O)C(=O)N[C@@H](C)C(=O)N[C@@H](CO)C(=O)N[C@@H]([C@@H](C)O)C(=O)N1)[C@@H](C)O)C(C)C)C(=O)N[C@H](C(=O)N[C@@H](CCC(N)=O)C(=O)N[C@@H](Cc1ccccc1)C(=O)N[C@@H](CO)C(=O)N[C@@H](CC(N)=O)C(=O)N[C@@H](CCCCN)C(=O)N[C@@H](CC(=O)O)C(=O)N[C@@H](CCCCN)C(=O)N[C@@H](C)C(=O)N[C@@H](CCC(N)=O)C(=O)N[C@H](C(=O)N[C@@H](CO)C(=O)N1CCC[C@H]1C(=O)N1CCC[C@H]1C(=O)N[C@H](C(=O)N[C@@H](CCC(=O)O)C(=O)N[C@H](C(=O)NCC(=O)N1CCC[C@H]1C(=O)N[C@@H](CC(N)=O)C(=O)N[C@@H](CO)C(=O)N1C[C@H](O)C[C@H]1C(N)=O)C(C)C)[C@@H](C)O)C(C)C)[C@@H](C)O [compound 245] (H-RCNASTCTVN[Cit]LADQITQFSNKDKAQVSPPTEVGPNS[Hyp]-NH2; disulfide 2-7; N-terminus assumed) | 10.77 | 3.350 | < 5.30 |  |  |  |  |
| CC[C@H](C)[C@H](NC(=O)[C@H](CCC(N)=O)NC(=O)[C@H](CC(=O)O)NC(=O)[C@H](C)NC(=O)[C@H](CC(C)C)NC(=O)[C@H](CCCNC(N)=O)NC(=O)[C@H](C)NC(=O)[C@@H](NC(=O)[C@@H](NC(=O)[C@@H]1CSSC[C@H](NC(=O)[C@@H](N)CCCCN)C(=O)N[C@@H](CC(N)=O)C(=O)N[C@@H]([C@@H](C)O)C(=O)N[C@@H](CO)C(=O)N[C@@H]([C@@H](C)O)C(=O)N1)[C@@H](C)O)C(C)C)C(=O)N[C@H](C(=O)N[C@@H](CCC(N)=O)C(=O)N[C@@H](Cc1ccccc1)C(=O)N[C@@H](CO)C(=O)N[C@@H](CC(N)=O)C(=O)N[C@@H](CCCCN)C(=O)N[C@@H](CC(=O)O)C(=O)N[C@@H](CCCCN)C(=O)N[C@@H](C)C(=O)N[C@@H](CCC(N)=O)C(=O)N[C@H](C(=O)N[C@@H](CO)C(=O)N1CCC[C@H]1C(=O)N1CCC[C@H]1C(=O)N[C@H](C(=O)N[C@@H](CCC(=O)O)C(=O)N[C@H](C(=O)NCC(=O)N1CCC[C@H]1C(=O)N[C@@H](CC(N)=O)C(=O)N[C@@H](CO)C(=O)N1C[C@H](O)C[C@H]1C(N)=O)C(C)C)[C@@H](C)O)C(C)C)[C@@H](C)O [compound 244] (H-KCNTSTCTVA[Cit]LADQITQFSNKDKAQVSPPTEVGPNS[Hyp]-NH2; disulfide 2-7) | 11.22 | 4.100 | < 5.30 |  |  |  |  |

The next lines start with the values.

| pEC50 (hAMY3 receptor; cAMP assay, hAMY3 receptor) | Max ThT signal (%) [1] [%] | pEC50 (hAM1 receptor; cAMP assay, hAM1 receptor) | pEC50 (hAMY3 receptor; cAMP accumulation, cells stably overexpressing hAMY3 receptor, 30 min stimulation) | improvement of potency on AMY3R compared to hAM15-52 (hAMY3 receptor; relative to SEQ ID NO: 1) | pEC50 (hAM1 receptor; cAMP accumulation, cells stably overexpressing hAM1 receptor, 30 min stimulation) | decrease of potency on AM1R compared to hAM15-52 (hAM1 receptor; relative to SEQ ID NO: 1) | Structure (SMILES) |
| --- | --- | --- | --- | --- | --- | --- | --- |
| 10.96 | 7.600 | < 5.30 |  |  |  |  | CC[C@H](C)[C@H](NC(=O)[C@H](CCC(N)=O)NC(=O)[C@H](Cc1c[nH]cn1)NC(=O)[C@H](C)NC(=O)[C@H](CC(C)C)NC(=O)[C@H](CCCNC(=N)N)NC(=O)[C@H](CCC(N)=O)NC(=O)[C@@H](NC(=O)[C@@H](NC(=O)[C@@H]1CSSC[C@H](NC(=O)[C@@H](N)CCCCN)C(=O)N[C@@H](CC(N)=O)C(=O)N[C@@H]([C@@H](C)O)C(=O)N[C@@H](C)C(=O)N[C@@H]([C@@H](C)O)C(=O)N1)[C@@H](C)O)C(C)C)C(=O)N[C@@H](Cc1ccc(O)cc1)C(=O)N[C@@H](CCC(N)=O)C(=O)N[C@@H](Cc1ccccc1)C(=O)N[C@H](C(=O)N[C@@H](CC(=O)O)C(=O)N[C@@H](CCCCN)C(=O)N[C@@H](CC(=O)O)C(=O)N[C@@H](CCCCN)C(=O)N[C@@H](CC(=O)O)C(=O)N[C@@H](C)C(=O)N[C@H](C(=O)N[C@@H](C)C(=O)N1CCC[C@H]1C(=O)N1CCC[C@H]1C(=O)N[C@H](C(=O)N[C@@H](CC(N)=O)C(=O)N[C@H](C(=O)NCC(=O)N[C@@H](CO)C(=O)N[C@@H](CC(N)=O)C(=O)NCC(=O)N1C[C@H](O)C[C@H]1C(N)=O)C(C)C)[C@@H](C)O)C(C)C)[C@@H](C)O [compound 52] (H-KCNTATCTVQRLAHQIYQFTDKDKDAVAPPTNVGSNG[Hyp]-NH2; disulfide 2-7; N-terminus assumed) |
| 10.33 | 17.300 | < 5.30 |  |  |  |  | CC[C@H](C)[C@H](NC(=O)[C@H](CCC(N)=O)NC(=O)[C@H](Cc1c[nH]cn1)NC(=O)[C@H](C)NC(=O)[C@H](CC(C)C)NC(=O)[C@H](CCCNC(N)=O)NC(=O)[C@H](CCC(N)=O)NC(=O)[C@@H](NC(=O)[C@@H](NC(=O)[C@@H]1CSSC[C@H](NC(=O)CN)C(=O)N[C@@H](CCCNC(=N)N)C(=O)N[C@@H]([C@@H](C)O)C(=O)NCC(=O)N[C@@H]([C@@H](C)O)C(=O)N1)[C@@H](C)O)C(C)C)C(=O)N[C@@H](Cc1ccc(O)cc1)C(=O)N[C@@H](CCC(N)=O)C(=O)N[C@@H](Cc1ccccc1)C(=O)N[C@H](C(=O)N[C@@H](CC(=O)O)C(=O)N[C@@H](CCCCN)C(=O)N[C@@H](CC(=O)O)C(=O)N[C@@H](CCCCN)C(=O)N[C@@H](CC(=O)O)C(=O)N[C@@H](CC(N)=O)C(=O)N[C@H](C(=O)N[C@@H](C)C(=O)N1CCC[C@H]1C(=O)N[C@@H](CCCNC(=N)N)C(=O)N[C@@H](CO)C(=O)N[C@@H](CCCCN)C(=O)N[C@H](C(=O)NCC(=O)N1CCC[C@H]1C(=O)N[C@@H](CC(N)=O)C(=O)NCC(=O)N1C[C@H](O)C[C@H]1C(N)=O)C(C)C)C(C)C)[C@@H](C)O [compound 290] (H-GCRTGTCTVQ[Cit]LAHQIYQFTDKDKDNVAPRSKVGPNG[Hyp]-NH2; disulfide 2-7; N-terminus assumed) |
|  | 2.700 |  | 10.20 | approximately 20 fold | 5.53 | approximately 2500 fold | CC[C@H](C)[C@H](NC(=O)[C@H](CCC(N)=O)NC(=O)[C@H](Cc1c[nH]cn1)NC(=O)[C@H](C)NC(=O)[C@H](CC(C)C)NC(=O)[C@H](CCCNC(=N)N)NC(=O)[C@H](CCC(N)=O)NC(=O)[C@@H](NC(=O)[C@@H](NC(=O)[C@@H]1CSSC[C@H](NC(=O)CN)C(=O)N[C@@H](CCCNC(=N)N)C(=O)N[C@@H](Cc2ccccc2)C(=O)NCC(=O)N[C@@H]([C@@H](C)O)C(=O)N1)[C@@H](C)O)C(C)C)C(=O)N[C@@H](Cc1ccc(O)cc1)C(=O)N[C@@H](CCC(N)=O)C(=O)N[C@@H](Cc1ccccc1)C(=O)N[C@H](C(=O)N[C@@H](CC(=O)O)C(=O)N[C@@H](CCCCN)C(=O)N[C@@H](CC(=O)O)C(=O)N[C@@H](CCCCN)C(=O)N[C@@H](CC(=O)O)C(=O)N[C@@H](CC(N)=O)C(=O)N[C@H](C(=O)N[C@@H](C)C(=O)N1CCC[C@H]1C(=O)N[C@@H](CCCNC(=N)N)C(=O)N[C@@H](CO)C(=O)N[C@@H](CCCCN)C(=O)N[C@H](C(=O)N[C@@H](CO)C(=O)N1CCC[C@H]1C(=O)N[C@@H](CCC(N)=O)C(=O)NCC(=O)N1C[C@H](O)C[C@H]1C(N)=O)[C@@H](C)CC)C(C)C)[C@@H](C)O [SEQ ID NO: 169, GCRFGTCTVQRLAHQIYQFTDKDKDNVAPRSKISPQG Hyp] (H-GCRFGTCTVQRLAHQIYQFTDKDKDNVAPRSKISPQG[Hyp]-NH2; disulfide 2-7; N-terminus assumed) |
